Assay results taken from patent US20180200257A1, “METHODS FOR THE TREATMENT OF INFLAMMATORY DISORDERS” (Galapagos NV, priority 2015, published 2018).

Test system: Subjects With Active Crohn's Disease With Evidence of Mucosal Ulceration
Test: Study 3 - Aspartate Aminotransferase (AST) levels
Assay type: in vivo, human
Description: Double-Blind, Randomized, Placebo-Controlled, Multi-Centre Study to Investigate the Efficacy and Safety of Compound 1 in Subjects With Active Crohn's Disease With Evidence of Mucosal Ulceration. This is a double-blind, randomized, placebo-controlled, multi-centre Phase 2 study to investigate the efficacy and safety of Compound 1 administered once daily for the treatment of active CD with evidence of mucosal ulceration. The pharmacokinetics (including a PK substudy) and pharmacodynamics of Compound 1 and metabolite in CD will also be characterised. A total of 180 eligible subjects will be randomized to receive Compound 1 or placebo in addition to their stable background treatment (eg, corticosteroids, aminosalicylates, or CD-related antibiotics). The study will consist of 2 parts, with total treatment duration of 20 weeks. Randomization in Part 1 will be stratified according the subject's previous anti-TNF exposure/response, CRP level at Screening, and oral corticosteroid use at visit Day −1. After the first 10 weeks of treatment in Part 1, patients will be re-randomized for Part 2 as shown in the diagram below and will be stratified according to the subject's clinical response, previous anti-TNF exposure/response, and oral corticosteroid use at visit Day -1. [table] AST levels determination is available at Quest Diagnostics, Clinical Trials, Quest House, 125-135 Staines Road, Hounslow, Middlesex, TW3 3JB, United Kingdom under Catalogue n#84450. For Study 3, the data are obtained at BARC Europe, 3B,Industrie Park, Zwijnaarde, B-9052 Ghent, Belgium. AST catalyzes the transamination of aspartate and 2-oxoglutarate, forming L-glutamate and oxalacetate. The oxalacetate is reduced to L-malate by malate dehydrogenase, whilst NADH is converted to NAD+, measured spectrophotometrically. Guidelines for the AST value have been issued by the association for Clinical Biochemistry and Laboratory Medicine, 130-132 Tooley Street LONDON SE1 2TU, united Kingdom, wherein the AST value should be below 34 U/l in Female and below 45 U/L in male. As disclosed in the respective study protocols for Study 1 or 2, at week 12, depending on the outcome of their treatment, the subjects may be continued in their initial treatment course, or reassigned to another treatment group in a randomized blinded fashion until week 24. Therefore, the number of subjects (N) for the period of either 12 weeks, or 24 weeks is provided to reflect this redistribution at week 12.

[1] = 10 weeks results, 200 mg q.d., week 2
[2] = 10 weeks results, 200 mg q.d., week 4
[3] = 10 weeks results, 200 mg q.d., week 6
[4] = 10 weeks results, 200 mg q.d., week 10
[5] = 20 weeks results, 200 mg q.d. week 0 to 10, to 100 mg q.d. week 10 to 20, week 2
[6] = 20 weeks results, 200 mg q.d. week 0 to 10, to 100 mg q.d. week 10 to 20, week 4
[7] = 20 weeks results, 200 mg q.d. week 0 to 10, to 100 mg q.d. week 10 to 20, week 6
[8] = 20 weeks results, 200 mg q.d. week 0 to 10, to 100 mg q.d. week 10 to 20, week 10
[9] = 20 weeks results, 200 mg q.d. week 0 to 10, to 100 mg q.d. week 10 to 20, week 12
[10] = 20 weeks results, 200 mg q.d. week 0 to 10, to 100 mg q.d. week 10 to 20, week 16
[11] = 20 weeks results, 200 mg q.d. week 0 to 10, to 100 mg q.d. week 10 to 20, week 20
[12] = 20 weeks results, 200 mg q.d. week 0 to 10, to placebo week 10 to 20, week 2
[13] = 20 weeks results, 200 mg q.d. week 0 to 10, to placebo week 10 to 20, week 4
[14] = 20 weeks results, 200 mg q.d. week 0 to 10, to placebo week 10 to 20, week 6
[15] = 20 weeks results, 200 mg q.d. week 0 to 10, to placebo week 10 to 20, week 10
[16] = 20 weeks results, 200 mg q.d. week 0 to 10, to placebo week 10 to 20, week 12
[17] = 20 weeks results, 200 mg q.d. week 0 to 10, to placebo week 10 to 20, week 16
[18] = 20 weeks results, 200 mg q.d. week 0 to 10, to placebo week 10 to 20, week 20
[19] = 20 weeks results, continued 200 mg q.d., week 2
[20] = 20 weeks results, continued 200 mg q.d., week 4
[21] = 20 weeks results, continued 200 mg q.d., week 6
[22] = 20 weeks results, continued 200 mg q.d., week 10
[23] = 20 weeks results, continued 200 mg q.d., week 12
[24] = 20 weeks results, continued 200 mg q.d., week 16
[25] = 20 weeks results, continued 200 mg q.d., week 20
[26] = 20 weeks results, placebo week 0 to 10, to 100 mg q.d. week 10 to 20, week 12
[27] = 20 weeks results, placebo week 0 to 10, to 100 mg q.d. week 10 to 20, week 16
[28] = 20 weeks results, placebo week 0 to 10, to 100 mg q.d. week 10 to 20, week 20

## O=C(Nc1nc2cccc(-c3ccc(CN4CCS(=O)(=O)CC4)cc3)n2n1)C1CC1 [Compound 1, cyclopropanecarboxylic acid {5-[4-(1,1-dioxo-thiomorpholin-4-ylmethyl)-phenyl]-[1,2,4]triazolo[1,5-a]pyridin-2-yl}-amide]
[1]
  Study 3 - AST Mean CFB: 3.0 IU/L
  Study 3 - AST Mean percentage CFB: 20.1%
[2]
  Study 3 - AST Mean CFB: 1.5 IU/L
  Study 3 - AST Mean percentage CFB: 13.4%
[3]
  Study 3 - AST Mean CFB: 1.3 IU/L
  Study 3 - AST Mean percentage CFB: 12.0%
[4]
  Study 3 - AST Mean CFB: 5.4 IU/L
  Study 3 - AST Mean percentage CFB: 38.7%
[5]
  Study 3 - AST Mean CFB: 1.50 IU/L
  Study 3 - AST Mean percentage CFB: 11.88%
[6]
  Study 3 - AST Mean CFB: 3.28 IU/L
  Study 3 - AST Mean percentage CFB: 19.48%
[7]
  Study 3 - AST Mean CFB: 1.40 IU/L
  Study 3 - AST Mean percentage CFB: 10.05%
[8]
  Study 3 - AST Mean CFB: 3.90 IU/L
  Study 3 - AST Mean percentage CFB: 23.93%
[9]
  Study 3 - AST Mean CFB: 1.13 IU/L
  Study 3 - AST Mean percentage CFB: 10.30%
[10]
  Study 3 - AST Mean CFB: 2.82 IU/L
  Study 3 - AST Mean percentage CFB: 20.91%
[11]
  Study 3 - AST Mean CFB: 8.15 IU/L
  Study 3 - AST Mean percentage CFB: 50.50%
[12]
  Study 3 - AST Mean CFB: 0.96 IU/L
  Study 3 - AST Mean percentage CFB: 8.86%
[13]
  Study 3 - AST Mean CFB: 1.96 IU/L
  Study 3 - AST Mean percentage CFB: 13.24%
[14]
  Study 3 - AST Mean CFB: 1.87 IU/L
  Study 3 - AST Mean percentage CFB: 12.17%
[15]
  Study 3 - AST Mean CFB: 7.17 IU/L
  Study 3 - AST Mean percentage CFB: 45.50%
[16]
  Study 3 - AST Mean CFB: 2.87 IU/L
  Study 3 - AST Mean percentage CFB: 14.82%
[17]
  Study 3 - AST Mean CFB: 2.62 IU/L
  Study 3 - AST Mean percentage CFB: 16.62%
[18]
  Study 3 - AST Mean CFB: 3.14 IU/L
  Study 3 - AST Mean percentage CFB: 21.09%
[19]
  Study 3 - AST Mean CFB: 4.24 IU/L
  Study 3 - AST Mean percentage CFB: 26.67%
[20]
  Study 3 - AST Mean CFB: 0.73 IU/L
  Study 3 - AST Mean percentage CFB: 11.03%
[21]
  Study 3 - AST Mean CFB: 1.12 IU/L
  Study 3 - AST Mean percentage CFB: 12.72%
[22]
  Study 3 - AST Mean CFB: 5.61 IU/L
  Study 3 - AST Mean percentage CFB: 43.70%
[23]
  Study 3 - AST Mean CFB: 1.64 IU/L
  Study 3 - AST Mean percentage CFB: 18.27%
[24]
  Study 3 - AST Mean CFB: 3.78 IU/L
  Study 3 - AST Mean percentage CFB: 32.98%
[25]
  Study 3 - AST Mean CFB: 1.53 IU/L
  Study 3 - AST Mean percentage CFB: 19.45%
[26]
  Study 3 - AST Mean CFB: 1.64 IU/L
  Study 3 - AST Mean percentage CFB: 16.84%
[27]
  Study 3 - AST Mean CFB: 0.68 IU/L
  Study 3 - AST Mean percentage CFB: 10.89%
[28]
  Study 3 - AST Mean CFB: 1.10 IU/L
  Study 3 - AST Mean percentage CFB: 16.93%
